Measured values taken from ChEMBL document CHEMBL2390904, “Bioavailable affinity label for collagen prolyl 4-hydroxylase” (Bioorg Med Chem, 2013).
The source made the active and inactive calls. No cut-off for these calls is given here.

Assays:
[1] = (§1) Toxicity in L4-stage of Caenorhabditis elegans expressing dpy-18 assessed as embyronic lethality after 24 hrs by light microscopic analysis; format: organism-based; details: in vivo, read-out: LD50
Caenorhabditis elegans = assay: as §1; format: organism-based; details: in vivo, 24 h
[2] = Binding affinity to human P4H expressed in Escherichia coli at 13 mM after 30 mins by SDS-PAGE analysis
[3] = Irreversible inhibition of human P4H expressed in Escherichia coli using dansyl-Gly-phe-pro-Gly-OEt and alpha-ketoglutarate as substrate incubated up to 15 mins followed by substrate addition by Kitz-Wilson plot analysis
[4] = Binding affinity to human P4H expressed in Escherichia coli using dansyl-Gly-phe-pro-Gly-OEt as substrate at 356 mM incubated up to 5 mins followed by substrate addition by competition assay in presence of alpha-ketoglutarate

Which LC50 at 24 h [1] does the source give for `O=C([O-])CCC(=O)C1CO1.[Na+]` (racemic) here?
Its LC50 at 24 h is 110 µM.

And the Activity (Caenorhabditis elegans)?
Its Activity is “Dose-dependent effect”.

What about the Activity [2] of the same molecule?
The Activity was “Active”.

What about the inhibition [3] of the same molecule?
The inhibition was “Dose-dependent effect”.

What about the Activity [4] of the same molecule?
Its Activity is “Active”.
